What is called AC50 is the concentration giving half of the maximal activity seen.

Each structure is given as a SMILES string.

For test [1], the target named is Beta-1 adrenergic receptor (Homo sapiens, UniProt P08588). Type of test: functional, cell-based.
The target of test [2] is T1, Muscarinic acetylcholine receptor M4 (Homo sapiens, UniProt P08173).
T1 sequence (P08173 whole entry): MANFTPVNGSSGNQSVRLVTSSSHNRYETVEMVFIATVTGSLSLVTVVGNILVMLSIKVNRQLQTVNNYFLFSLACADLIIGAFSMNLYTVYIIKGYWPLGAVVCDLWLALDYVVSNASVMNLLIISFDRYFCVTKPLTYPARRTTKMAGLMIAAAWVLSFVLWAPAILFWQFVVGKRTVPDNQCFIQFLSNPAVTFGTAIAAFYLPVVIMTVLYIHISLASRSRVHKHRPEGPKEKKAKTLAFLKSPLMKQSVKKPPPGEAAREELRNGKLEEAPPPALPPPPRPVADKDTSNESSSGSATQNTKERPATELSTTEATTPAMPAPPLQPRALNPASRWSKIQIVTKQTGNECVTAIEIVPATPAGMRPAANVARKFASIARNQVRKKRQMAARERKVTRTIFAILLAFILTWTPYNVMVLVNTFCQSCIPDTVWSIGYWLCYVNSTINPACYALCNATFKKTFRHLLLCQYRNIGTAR

The target of test [3] is T2, Muscarinic acetylcholine receptor M5 (Homo sapiens, UniProt P08912).
T2 sequence (P08912 whole entry): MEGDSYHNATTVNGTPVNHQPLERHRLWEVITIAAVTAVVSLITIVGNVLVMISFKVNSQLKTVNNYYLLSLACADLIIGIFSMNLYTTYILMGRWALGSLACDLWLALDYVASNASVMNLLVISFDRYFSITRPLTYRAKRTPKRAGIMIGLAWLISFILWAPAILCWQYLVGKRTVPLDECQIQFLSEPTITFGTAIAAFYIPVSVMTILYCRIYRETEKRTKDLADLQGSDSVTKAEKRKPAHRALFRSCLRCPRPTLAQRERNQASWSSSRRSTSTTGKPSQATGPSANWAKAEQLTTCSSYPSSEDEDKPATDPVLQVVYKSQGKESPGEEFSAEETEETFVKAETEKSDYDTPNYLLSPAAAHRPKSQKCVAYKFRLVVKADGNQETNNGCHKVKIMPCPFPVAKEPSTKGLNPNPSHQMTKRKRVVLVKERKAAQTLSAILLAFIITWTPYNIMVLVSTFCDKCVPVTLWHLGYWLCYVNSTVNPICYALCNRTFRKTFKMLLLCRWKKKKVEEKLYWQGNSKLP

Test [4] has as its target Voltage-dependent L-type calcium channel subunit alpha-1C (Homo sapiens, UniProt Q13936). It counts as functional, cell-based.
The target of test [5] is Gamma-aminobutyric acid type B receptor subunit 1 (Homo sapiens, UniProt Q9UBS5).
Test [6] concerns the target 5-hydroxytryptamine receptor 7 (Homo sapiens, UniProt P34969).
Test [7] addresses D(1B) dopamine receptor (Homo sapiens, UniProt P21918).
For test [8], the target named is 5-hydroxytryptamine receptor 5A (Homo sapiens, UniProt P47898).
Test [9] deals with Cannabinoid receptor 1 (Homo sapiens, UniProt P21554). Type of test: functional.
Test [10] addresses T3, Type-2 angiotensin II receptor (Homo sapiens, UniProt P50052).
T3 sequence (P50052 whole entry): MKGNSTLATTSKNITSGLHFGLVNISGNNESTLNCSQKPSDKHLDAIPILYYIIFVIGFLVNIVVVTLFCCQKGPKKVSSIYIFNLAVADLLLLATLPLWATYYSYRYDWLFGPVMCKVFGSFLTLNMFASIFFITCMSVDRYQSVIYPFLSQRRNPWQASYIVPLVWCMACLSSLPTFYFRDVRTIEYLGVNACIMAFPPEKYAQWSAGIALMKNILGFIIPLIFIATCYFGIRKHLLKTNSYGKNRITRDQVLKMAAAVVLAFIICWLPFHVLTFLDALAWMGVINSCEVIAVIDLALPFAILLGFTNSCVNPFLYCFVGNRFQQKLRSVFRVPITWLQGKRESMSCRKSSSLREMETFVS
It counts as functional.

Test [11] concerns the target Hydroxycarboxylic acid receptor 2 (Homo sapiens, UniProt Q8TDS4).
Test [12] has as its target Synaptic vesicular amine transporter (Rattus norvegicus, UniProt Q01827). Type of test: functional.
Test [13] has as its target 5-hydroxytryptamine receptor 2B (Homo sapiens, UniProt P41595).
Test [14] addresses Prothrombin (Homo sapiens, UniProt P00734). It counts as functional.
Test [15] addresses Sodium-dependent noradrenaline transporter (Homo sapiens, UniProt P23975).
For test [16], the target named is T4, Estrogen receptor (Homo sapiens, UniProt P03372).
T4 sequence (P03372 whole entry): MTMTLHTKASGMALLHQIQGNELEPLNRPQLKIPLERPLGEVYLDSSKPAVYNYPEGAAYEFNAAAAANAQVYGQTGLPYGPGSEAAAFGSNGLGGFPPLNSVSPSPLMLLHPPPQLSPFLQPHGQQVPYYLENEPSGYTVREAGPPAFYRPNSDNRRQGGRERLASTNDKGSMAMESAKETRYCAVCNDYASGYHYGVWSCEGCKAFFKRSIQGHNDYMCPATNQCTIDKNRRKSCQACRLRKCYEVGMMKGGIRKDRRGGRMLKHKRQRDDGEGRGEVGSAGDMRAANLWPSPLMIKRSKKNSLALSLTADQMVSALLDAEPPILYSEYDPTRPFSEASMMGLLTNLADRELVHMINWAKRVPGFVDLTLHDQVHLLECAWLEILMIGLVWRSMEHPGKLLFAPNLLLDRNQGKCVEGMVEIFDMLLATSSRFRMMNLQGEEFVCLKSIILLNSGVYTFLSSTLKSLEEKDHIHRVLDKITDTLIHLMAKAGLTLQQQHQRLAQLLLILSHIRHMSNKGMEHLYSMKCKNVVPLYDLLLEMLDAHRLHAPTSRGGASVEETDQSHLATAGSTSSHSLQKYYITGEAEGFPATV
Type of test: functional.
Note: assay procedure not described here.

Chain of Voltage-dependent L-type calcium channel subunit alpha-1C (Q13936 whole entry): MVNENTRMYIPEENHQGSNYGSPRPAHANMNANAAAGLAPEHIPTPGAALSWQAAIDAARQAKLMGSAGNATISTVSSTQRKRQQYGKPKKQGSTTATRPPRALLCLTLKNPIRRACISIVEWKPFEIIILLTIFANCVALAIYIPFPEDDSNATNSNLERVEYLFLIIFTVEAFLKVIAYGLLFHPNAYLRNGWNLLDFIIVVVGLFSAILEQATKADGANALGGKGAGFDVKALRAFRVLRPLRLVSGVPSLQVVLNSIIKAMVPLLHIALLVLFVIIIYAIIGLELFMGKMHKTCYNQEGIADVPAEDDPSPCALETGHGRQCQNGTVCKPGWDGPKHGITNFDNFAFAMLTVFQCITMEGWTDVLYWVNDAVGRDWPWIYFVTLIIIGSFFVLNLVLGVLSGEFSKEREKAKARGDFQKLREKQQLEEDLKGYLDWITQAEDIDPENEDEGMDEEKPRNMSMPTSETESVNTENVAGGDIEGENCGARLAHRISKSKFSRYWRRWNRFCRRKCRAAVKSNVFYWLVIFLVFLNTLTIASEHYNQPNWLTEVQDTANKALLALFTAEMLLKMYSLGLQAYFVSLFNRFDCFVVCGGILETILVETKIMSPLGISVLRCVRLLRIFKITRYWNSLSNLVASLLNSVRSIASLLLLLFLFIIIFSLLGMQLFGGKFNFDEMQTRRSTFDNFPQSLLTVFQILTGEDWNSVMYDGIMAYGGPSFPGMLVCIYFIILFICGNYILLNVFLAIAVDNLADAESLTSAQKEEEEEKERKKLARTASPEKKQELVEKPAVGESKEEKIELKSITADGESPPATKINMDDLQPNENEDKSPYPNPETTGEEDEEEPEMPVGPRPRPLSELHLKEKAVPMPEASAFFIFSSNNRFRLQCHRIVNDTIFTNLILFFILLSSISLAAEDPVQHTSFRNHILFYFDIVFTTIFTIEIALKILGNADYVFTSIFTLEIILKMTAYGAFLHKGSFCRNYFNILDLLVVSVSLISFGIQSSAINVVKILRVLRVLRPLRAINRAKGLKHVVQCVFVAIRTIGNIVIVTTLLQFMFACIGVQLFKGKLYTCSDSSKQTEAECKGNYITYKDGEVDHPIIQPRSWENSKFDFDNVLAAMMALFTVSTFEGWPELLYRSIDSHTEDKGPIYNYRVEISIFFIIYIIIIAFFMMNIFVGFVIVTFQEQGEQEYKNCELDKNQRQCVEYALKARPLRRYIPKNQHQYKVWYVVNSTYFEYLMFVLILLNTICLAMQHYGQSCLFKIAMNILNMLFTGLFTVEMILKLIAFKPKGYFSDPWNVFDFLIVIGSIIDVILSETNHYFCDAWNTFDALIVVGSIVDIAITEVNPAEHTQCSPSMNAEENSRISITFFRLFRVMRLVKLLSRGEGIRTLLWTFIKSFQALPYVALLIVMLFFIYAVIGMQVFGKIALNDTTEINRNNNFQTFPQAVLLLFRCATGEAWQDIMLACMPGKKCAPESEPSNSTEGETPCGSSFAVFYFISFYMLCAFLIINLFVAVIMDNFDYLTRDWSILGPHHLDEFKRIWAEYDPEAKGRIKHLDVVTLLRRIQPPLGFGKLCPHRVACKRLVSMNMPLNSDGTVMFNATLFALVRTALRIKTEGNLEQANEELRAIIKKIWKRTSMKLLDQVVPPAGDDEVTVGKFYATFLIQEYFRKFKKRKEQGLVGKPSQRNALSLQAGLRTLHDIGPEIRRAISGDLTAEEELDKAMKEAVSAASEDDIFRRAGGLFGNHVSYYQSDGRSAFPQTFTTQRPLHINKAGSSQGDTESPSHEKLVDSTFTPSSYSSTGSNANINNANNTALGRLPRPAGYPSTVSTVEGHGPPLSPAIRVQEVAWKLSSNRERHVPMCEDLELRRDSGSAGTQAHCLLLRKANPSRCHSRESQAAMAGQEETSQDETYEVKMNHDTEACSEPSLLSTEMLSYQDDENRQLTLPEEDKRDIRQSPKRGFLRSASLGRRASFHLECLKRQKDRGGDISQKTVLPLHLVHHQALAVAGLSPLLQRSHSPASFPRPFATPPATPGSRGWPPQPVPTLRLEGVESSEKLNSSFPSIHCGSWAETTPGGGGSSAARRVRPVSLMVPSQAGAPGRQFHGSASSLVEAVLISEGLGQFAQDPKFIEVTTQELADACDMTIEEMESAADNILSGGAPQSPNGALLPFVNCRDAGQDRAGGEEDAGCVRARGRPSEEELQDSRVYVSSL
Chain of Gamma-aminobutyric acid type B receptor subunit 1 (Q9UBS5 whole entry): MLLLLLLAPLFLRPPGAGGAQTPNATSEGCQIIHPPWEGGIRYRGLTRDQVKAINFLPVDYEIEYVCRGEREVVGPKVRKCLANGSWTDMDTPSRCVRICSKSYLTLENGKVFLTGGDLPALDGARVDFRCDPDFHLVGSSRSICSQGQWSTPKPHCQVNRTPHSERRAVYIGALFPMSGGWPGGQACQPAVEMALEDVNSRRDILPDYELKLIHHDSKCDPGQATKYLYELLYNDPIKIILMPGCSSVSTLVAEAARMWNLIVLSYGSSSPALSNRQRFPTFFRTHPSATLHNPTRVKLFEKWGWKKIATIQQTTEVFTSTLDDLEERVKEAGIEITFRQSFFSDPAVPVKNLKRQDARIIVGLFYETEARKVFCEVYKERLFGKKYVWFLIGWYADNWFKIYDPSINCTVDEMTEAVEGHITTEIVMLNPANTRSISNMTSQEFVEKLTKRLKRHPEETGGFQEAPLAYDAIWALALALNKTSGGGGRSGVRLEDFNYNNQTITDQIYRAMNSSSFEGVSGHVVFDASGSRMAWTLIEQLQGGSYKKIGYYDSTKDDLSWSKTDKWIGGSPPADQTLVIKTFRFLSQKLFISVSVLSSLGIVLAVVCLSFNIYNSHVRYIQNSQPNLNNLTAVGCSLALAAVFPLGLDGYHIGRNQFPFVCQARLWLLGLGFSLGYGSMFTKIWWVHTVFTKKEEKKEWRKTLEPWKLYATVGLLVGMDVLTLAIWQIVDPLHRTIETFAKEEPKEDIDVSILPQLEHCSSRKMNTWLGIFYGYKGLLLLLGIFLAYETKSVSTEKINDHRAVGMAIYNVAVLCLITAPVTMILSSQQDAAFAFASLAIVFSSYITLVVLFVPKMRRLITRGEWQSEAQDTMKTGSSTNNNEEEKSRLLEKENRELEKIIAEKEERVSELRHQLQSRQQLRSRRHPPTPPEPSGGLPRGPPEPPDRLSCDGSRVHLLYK
Chain of 5-hydroxytryptamine receptor 7 (P34969 whole entry): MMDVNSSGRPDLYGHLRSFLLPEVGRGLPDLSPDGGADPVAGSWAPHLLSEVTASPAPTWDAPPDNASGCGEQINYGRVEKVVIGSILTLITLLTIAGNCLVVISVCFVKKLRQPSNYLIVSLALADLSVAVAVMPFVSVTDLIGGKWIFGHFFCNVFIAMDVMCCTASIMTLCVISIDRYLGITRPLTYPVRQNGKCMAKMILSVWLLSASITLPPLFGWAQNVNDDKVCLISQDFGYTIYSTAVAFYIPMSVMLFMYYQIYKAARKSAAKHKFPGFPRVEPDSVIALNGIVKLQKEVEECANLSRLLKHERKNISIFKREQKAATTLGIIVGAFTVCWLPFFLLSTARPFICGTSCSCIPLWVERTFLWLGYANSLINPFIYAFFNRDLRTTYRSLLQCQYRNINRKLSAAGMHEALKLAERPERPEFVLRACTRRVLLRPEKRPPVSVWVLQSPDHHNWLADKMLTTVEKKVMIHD
Chain of 5-hydroxytryptamine receptor 5A (P47898 whole entry): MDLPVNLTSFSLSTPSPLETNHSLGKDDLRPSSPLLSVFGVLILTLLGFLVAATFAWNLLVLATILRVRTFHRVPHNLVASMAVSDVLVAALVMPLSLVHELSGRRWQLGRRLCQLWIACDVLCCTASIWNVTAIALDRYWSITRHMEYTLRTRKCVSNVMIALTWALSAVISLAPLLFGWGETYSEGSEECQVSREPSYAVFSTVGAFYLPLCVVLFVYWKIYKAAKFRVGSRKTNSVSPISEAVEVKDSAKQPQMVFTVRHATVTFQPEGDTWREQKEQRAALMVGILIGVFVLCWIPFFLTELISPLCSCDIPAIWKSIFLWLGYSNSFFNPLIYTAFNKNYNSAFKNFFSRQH
Chain of Beta-1 adrenergic receptor (P08588 whole entry): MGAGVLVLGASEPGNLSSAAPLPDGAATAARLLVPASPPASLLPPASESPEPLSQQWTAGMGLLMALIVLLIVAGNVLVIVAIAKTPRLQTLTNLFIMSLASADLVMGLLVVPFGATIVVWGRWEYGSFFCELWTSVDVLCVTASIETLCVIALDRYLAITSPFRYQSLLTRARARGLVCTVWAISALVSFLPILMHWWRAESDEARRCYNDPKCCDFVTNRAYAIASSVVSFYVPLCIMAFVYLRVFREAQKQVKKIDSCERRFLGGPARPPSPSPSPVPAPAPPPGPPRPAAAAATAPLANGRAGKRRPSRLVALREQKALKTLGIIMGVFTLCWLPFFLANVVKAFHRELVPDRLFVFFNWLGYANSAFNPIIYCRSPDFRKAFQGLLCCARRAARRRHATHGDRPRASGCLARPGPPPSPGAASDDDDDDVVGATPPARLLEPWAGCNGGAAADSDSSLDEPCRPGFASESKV
Chain of Cannabinoid receptor 1 (P21554 whole entry): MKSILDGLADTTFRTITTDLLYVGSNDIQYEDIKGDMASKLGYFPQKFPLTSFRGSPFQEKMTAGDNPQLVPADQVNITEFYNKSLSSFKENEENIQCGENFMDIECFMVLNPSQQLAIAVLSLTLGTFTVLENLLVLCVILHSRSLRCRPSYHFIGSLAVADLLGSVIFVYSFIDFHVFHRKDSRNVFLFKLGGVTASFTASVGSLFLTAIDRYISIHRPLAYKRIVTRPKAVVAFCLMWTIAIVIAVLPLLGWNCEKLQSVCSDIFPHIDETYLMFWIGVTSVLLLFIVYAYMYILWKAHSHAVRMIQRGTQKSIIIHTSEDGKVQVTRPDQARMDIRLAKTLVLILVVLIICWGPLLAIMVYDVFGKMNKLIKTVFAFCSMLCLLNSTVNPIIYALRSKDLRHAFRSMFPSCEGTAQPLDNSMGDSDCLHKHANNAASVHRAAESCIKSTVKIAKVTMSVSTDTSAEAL

The molecule `CC(C)N(CCCCOCC(=O)O)c1cnc(-c2ccccc2)c(-c2ccccc2)n1` showed an AC50 in [1] greater than 30 µM.

In the case of `C[N+]12CCC(CC1)C(OC(=O)C(O)(c1ccccc1)c1ccccc1)C2` (centres undefined), the AC50 was 0.0047 µM in test [2] and 0.0068 µM in test [3].

`O=C(CCCN1CCC(O)(c2ccc(Br)cc2)CC1)c1ccc(F)cc1` [BROMPERIDOL]: the AC50 in test [1] was greater than 30 µM.

Consider `CO/N=C(\C(=O)N[C@@H]1C(=O)N2C(C(=O)O)=C(CSc3nc(=O)c(=O)[nH]n3C)CS[C@H]12)c1csc(N)n1` [CEFTRIAXONE], for which, in test [4], the AC50 was greater than 50 µM.

In the case of `COc1cc(N)c(Cl)cc1C(=O)NC1CCN(CCCOc2ccc(F)cc2)CC1OC` (centres undefined) [CISAPRIDE], the half-maximal activity concentration (AC50) in test [5] is greater than 10 µM; in [4], greater than 50 µM.

In the case of `CCCCOc1ccc(C(=O)CCN2CCCCC2)cc1` [DYCLONINE], the AC50 in test [5] was greater than 10 µM; in test [6], greater than 10 µM; in test [7], greater than 10 µM; in test [2], 13.4 µM; in test [8] it was greater than 10 µM; in test [3], 15.8 µM. This molecule showed a concentration at half-maximal activity (AC50) in test [9] greater than 10 µM.

Regarding `CC(C)NC[C@H](O)COc1ccc(CC(N)=O)cc1` [ESATENOLOL], the AC50 in test [6] and in test [9] was greater than 10 µM throughout.

For `NNC(=O)c1ccncc1` [ISONIAZID], the half-maximal activity concentration (AC50) in [6] and in test [9] was greater than 10 µM throughout.

Regarding `O=C1Nc2ccc(Cl)cc2C(c2ccccc2Cl)=NC1O` (centres undefined) [LORAZEPAM], the AC50 is greater than 100 µM in test [10] and greater than 10 µM in test [11].

As for `CN1CCN=C(c2ccccc2)c2cc(Cl)ccc21` [MEDAZEPAM], the AC50 in [1] was greater than 30 µM.

Take `Cc1ccnc2c1NC(=O)c1cccnc1N2C1CC1` [NEVIRAPINE]: the AC50 in test [6], in test [7], in test [2], in test [8], in test [3] and in [9] was greater than 10 µM in each case.

`Fc1ccc([C@@H]2CCNC[C@H]2COc2ccc3c(c2)OCO3)cc1` [PAROXETINE]: the AC50 was greater than 10 µM in test [5]; greater than 100 µM in [10]; greater than 10 µM in test [6]; greater than 10 µM in test [7]; 3.47 µM in test [2]; 2.5 µM in test [12]. Besides, the half-maximal activity concentration (AC50) in test [13] is 10.6 µM; in test [4], greater than 50 µM; in [8], 5.63 µM; in [9] it was greater than 10 µM.

`CCC(=O)O[C@](Cc1ccccc1)(c1ccccc1)[C@H](C)CN(C)C` [PROPOXYPHENE] registered a half-maximal activity concentration (AC50) in test [11] greater than 10 µM.

Regarding `CCN(CC)CCCC(C)Nc1c2ccc(Cl)cc2nc2ccc(OC)cc12` (centres undefined) [QUINACRINE], the AC50 in test [14] was greater than 30 µM; in test [15], 6.92 µM.

For `C=CCN1CCc2nc(N)sc2CC1` [TALIPEXOLE], the AC50 in [1] was greater than 30 µM.

In test [16], `CCOC(=O)[C@@H](N)Cc1ccc(-c2cc(O[C@H](c3ccc(Cl)cc3-n3ccc(C)n3)C(F)(F)F)nc(N)n2)cc1` [TELOTRISTAT ETHYL] yielded an AC50 greater than 30 µM.

For the molecule `CCCCCCCC(=O)CC[C@@H]1[C@@H](C/C=C\CCCC(=O)OC(C)C)[C@@H](O)C[C@H]1O` [UNOPROSTONE ISOPROPYL], the half-maximal activity concentration (AC50) in test [4] was greater than 50 µM.

For `CC(c1cc2ccccc2s1)N(O)C(N)=O` (centres undefined) [ZILEUTON], the AC50 in test [12] is greater than 30 µM.

The record behind these values is ChEMBL document CHEMBL5291721, “A preclinical secondary pharmacology resource illuminates target-adverse drug reaction associations of marketed drugs” (Nat Commun, 2023).
